{"source": "patent US8633183B2", "about": "(priority 2010, dated 2014)"}
{"target": "PI3Kalpha (Homo sapiens (Human), UniProt P42336)", "sequence (P42336 whole entry, looked up)": "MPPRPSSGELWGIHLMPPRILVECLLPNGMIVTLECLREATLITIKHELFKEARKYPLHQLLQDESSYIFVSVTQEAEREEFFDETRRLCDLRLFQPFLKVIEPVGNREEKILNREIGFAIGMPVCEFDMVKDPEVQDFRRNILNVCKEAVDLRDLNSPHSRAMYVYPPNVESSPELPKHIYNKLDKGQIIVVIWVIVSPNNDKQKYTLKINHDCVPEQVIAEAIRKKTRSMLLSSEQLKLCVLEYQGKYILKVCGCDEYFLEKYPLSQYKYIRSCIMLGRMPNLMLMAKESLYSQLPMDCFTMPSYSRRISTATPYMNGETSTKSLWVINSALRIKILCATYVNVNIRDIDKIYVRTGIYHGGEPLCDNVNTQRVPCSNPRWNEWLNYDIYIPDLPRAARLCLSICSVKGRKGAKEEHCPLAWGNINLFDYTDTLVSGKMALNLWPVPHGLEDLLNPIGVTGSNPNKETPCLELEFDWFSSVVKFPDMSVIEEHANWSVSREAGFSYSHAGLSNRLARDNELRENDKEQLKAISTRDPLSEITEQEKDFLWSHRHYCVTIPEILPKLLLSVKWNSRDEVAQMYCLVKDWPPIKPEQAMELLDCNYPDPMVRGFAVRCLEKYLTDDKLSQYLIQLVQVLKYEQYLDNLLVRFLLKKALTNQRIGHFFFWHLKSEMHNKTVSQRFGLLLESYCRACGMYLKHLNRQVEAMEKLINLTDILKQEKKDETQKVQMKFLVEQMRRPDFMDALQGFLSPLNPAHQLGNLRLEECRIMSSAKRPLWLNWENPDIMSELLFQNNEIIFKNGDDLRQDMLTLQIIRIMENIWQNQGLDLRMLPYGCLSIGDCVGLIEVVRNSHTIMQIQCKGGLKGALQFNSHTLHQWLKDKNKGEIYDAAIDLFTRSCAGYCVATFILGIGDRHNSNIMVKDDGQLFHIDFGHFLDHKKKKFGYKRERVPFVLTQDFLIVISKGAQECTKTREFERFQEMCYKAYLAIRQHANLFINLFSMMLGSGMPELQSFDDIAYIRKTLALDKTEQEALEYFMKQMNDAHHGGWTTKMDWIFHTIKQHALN", "conditions": "read-out: IC50 PI3K", "units": {"IC50": "nM"}}
{"smiles": "CCc1ncnc(-c2cc(F)c(C(=O)N3CCN(CCNS(C)(=O)=O)CC3)c(Cl)c2)c1C#Cc1ccc(N)nc1", "note": "[Example E-159]", "IC50": 25.8}
{"smiles": "CCc1ncnc(-c2cc(F)c(C(=O)N3CCN(C4CCC4)CC3)c(Cl)c2)c1C#Cc1ccc(N)nc1", "note": "[Example E-160]", "IC50": 115}
{"smiles": "CCc1ncnc(-c2cc(F)c(C(=O)N3CCC4(CC3)CNC4)c(F)c2)c1C#Cc1ccc(N)nc1", "note": "[Example E-161]", "IC50": 925}
{"smiles": "CCc1ncnc(-c2cc(F)c(C(=O)N3CCC4(CC3)CNC4)c(Cl)c2)c1C#Cc1ccc(N)nc1", "note": "[Example E-162]", "IC50": 540}
{"smiles": "CCc1ncnc(-c2ccc(C(=O)N3CCn4c(COC)nnc4C3)c(F)c2)c1C#Cc1ccc(N)nc1", "note": "[Example E-163]", "IC50": 50.8}
{"smiles": "CCc1ncnc(-c2ccc(C(=O)N3CCC4(CC3)COC4)c(F)c2)c1C#Cc1ccc(N)nc1", "note": "[Example E-164]", "IC50": 154}
{"smiles": "C#CCN1CCN(C(=O)c2ccc(-c3ncnc(CC)c3C#Cc3ccc(N)nc3)cc2F)CC1", "note": "[Example E-165]", "IC50": 178}
{"smiles": "CCc1ncnc(-c2ccc(C(=O)N3CCC(F)(F)CC3)c(F)c2)c1C#Cc1ccc(N)nc1", "note": "[Example E-166]", "IC50": 154}
{"smiles": "CCc1ncnc(-c2ccc(C(=O)NCCN3CCNCC3)c(F)c2)c1C#Cc1ccc(N)nc1", "note": "[Example E-167]", "IC50": 157}
{"smiles": "CCc1ncnc(-c2ccc(C(=O)NCC3CCNCC3)c(F)c2)c1C#Cc1ccc(N)nc1", "note": "[Example E-168]", "IC50": 373}
{"smiles": "CCc1ncnc(-c2ccc(C(=O)N(C)C3CCOCC3)c(F)c2)c1C#Cc1ccc(N)nc1", "note": "[Example E-169]", "IC50": 70}
{"smiles": "CCc1ncnc(-c2cc(F)c(C(=O)N3CCn4c(COC)nnc4C3)c(F)c2)c1C#Cc1ccc(N)nc1", "note": "[Example E-170]", "IC50": 96.5}
{"smiles": "CCc1ncnc(-c2cc(F)c(C(=O)NCCN3CCNCC3)c(F)c2)c1C#Cc1ccc(N)nc1", "note": "[Example E-174]", "IC50": 165}
{"smiles": "CCc1ncnc(-c2cc(F)c(C(=O)NCC3CCNCC3)c(F)c2)c1C#Cc1ccc(N)nc1", "note": "[Example E-175]", "IC50": 163}
{"smiles": "CCc1ncnc(-c2cc(F)c(C(=O)N(C)C3CCN(C)CC3)c(F)c2)c1C#Cc1ccc(N)nc1", "note": "[Example E-176]", "IC50": 491}
{"smiles": "CCc1ncnc(-c2ccc(C(=O)N3CCC(C(C)(C)O)CC3)c(F)c2)c1C#Cc1ccc(NC)nc1", "note": "[Example E-177]", "IC50": 337}
{"smiles": "CCc1ncnc(-c2ccc(C(=O)N3CCC(N4CCOCC4)CC3)c(F)c2)c1C#Cc1ccc(NC)nc1", "note": "[Example E-178]", "IC50": 335}
{"smiles": "CCc1ncnc(-c2ccc(C(=O)N3CCN(C4CCOCC4)CC3)c(F)c2)c1C#Cc1ccc(NC)nc1", "note": "[Example E-179]", "IC50": 276}
{"smiles": "CCc1ncnc(-c2ccc(C(=O)N3CC[C@@H](N(C)C)C3)c(F)c2)c1C#Cc1ccc(NC)nc1", "note": "[Example E-180]", "IC50": 357}
{"smiles": "CCc1ncnc(-c2ccc(C(=O)N3CC[C@H](N(C)C)C3)c(F)c2)c1C#Cc1ccc(NC)nc1", "note": "[Example E-181]", "IC50": 275}
{"smiles": "CCc1ncnc(-c2ccc(C(=O)N3CCN(C)CC3)c(F)c2)c1C#Cc1ccc(NC)nc1", "note": "[Example E-182]", "IC50": 247}
{"smiles": "CCc1ncnc(-c2ccc(C(=O)N3CCC(N4CCN(C)CC4)CC3)c(F)c2)c1C#Cc1ccc(NC)nc1", "note": "[Example E-183]", "IC50": 308}
{"smiles": "CCc1ncnc(-c2ccc(C(=O)N3CCC(C(C)(C)O)CC3)c(Cl)c2)c1C#Cc1ccc(NC)nc1", "note": "[Example E-184]", "IC50": 399}
{"smiles": "CCc1ncnc(-c2ccc(C(=O)N3CCC(N4CCOCC4)CC3)c(Cl)c2)c1C#Cc1ccc(NC)nc1", "note": "[Example E-185]", "IC50": 202}
{"smiles": "CCc1ncnc(-c2ccc(C(=O)N3CCN(C4CCOCC4)CC3)c(Cl)c2)c1C#Cc1ccc(NC)nc1", "note": "[Example E-186]", "IC50": 325}
{"smiles": "CCc1ncnc(-c2ccc(C(=O)N3CCN(CC(F)F)CC3)c(Cl)c2)c1C#Cc1ccc(NC)nc1", "note": "[Example E-187]", "IC50": 162}
{"smiles": "CCc1ncnc(-c2ccc(C(=O)N3CC[C@@H](N(C)C)C3)c(Cl)c2)c1C#Cc1ccc(NC)nc1", "note": "[Example E-188]", "IC50": 356}
{"smiles": "CCc1ncnc(-c2ccc(C(=O)N3CCN(CC)CC3)c(Cl)c2)c1C#Cc1ccc(NC)nc1", "note": "[Example E-189]", "IC50": 186}
{"smiles": "CCc1ncnc(-c2ccc(C(=O)N3CC[C@H](N(C)C)C3)c(Cl)c2)c1C#Cc1ccc(NC)nc1", "note": "[Example E-190]", "IC50": 175}
{"smiles": "CCc1ncnc(-c2ccc(C(=O)N3CCN(C)CC3)c(Cl)c2)c1C#Cc1ccc(NC)nc1", "note": "[Example E-191]", "IC50": 142}
{"smiles": "CCc1ncnc(-c2ccc(C(=O)N3CCC(N4CCN(C)CC4)CC3)c(Cl)c2)c1C#Cc1ccc(NC)nc1", "note": "[Example E-192]", "IC50": 334}
{"smiles": "CCc1ncnc(-c2cc(Cl)c(C(=O)N3CCN4CCC[C@H]4C3)c(Cl)c2)c1C#Cc1ccc(N)nc1", "note": "[Example E-194]", "IC50": 129}
{"smiles": "CCc1ncnc(-c2cc(Cl)c(C(=O)N3CCN(C)C(=O)C3)c(Cl)c2)c1C#Cc1ccc(N)nc1", "note": "[Example E-195]", "IC50": 20.3}
{"smiles": "CCc1ncnc(-c2cc(Cl)c(C(=O)N3CC[C@@H](N(C)C)C3)c(Cl)c2)c1C#Cc1ccc(N)nc1", "note": "[Example E-196]", "IC50": 235}
{"smiles": "CCc1ncnc(-c2cc(Cl)c(C(=O)N3CCN(C)CC3)c(Cl)c2)c1C#Cc1ccc(N)nc1", "note": "[Example E-197]", "IC50": 123}
{"smiles": "CCc1ncnc(-c2cc(Cl)c(C(=O)N3CCN(CC)CC3)c(Cl)c2)c1C#Cc1ccc(N)nc1", "note": "[Example E-198]", "IC50": 90.9}
{"smiles": "CCc1ncnc(-c2cc(Cl)c(C(=O)N3CCN(CC(C)(C)O)CC3)c(Cl)c2)c1C#Cc1ccc(N)nc1", "note": "[Example E-199]", "IC50": 74.6}
{"smiles": "CCc1ncnc(-c2cc(Cl)c(C(=O)N3CCC(C(C)O)CC3)c(Cl)c2)c1C#Cc1ccc(N)nc1", "note": "(stereo not drawn) [Example E-200]", "IC50": 58.8}
{"smiles": "CCc1ncnc(-c2cc(Cl)c(C(=O)N3CCC(C(C)(C)O)CC3)c(Cl)c2)c1C#Cc1ccc(N)nc1", "note": "[Example E-201]", "IC50": 98.1}
{"smiles": "CCc1ncnc(-c2cc(Cl)c(C(=O)N3CCN(CC(F)F)CC3)c(Cl)c2)c1C#Cc1ccc(N)nc1", "note": "[Example E-202]", "IC50": 85.8}
{"smiles": "CCc1ncnc(-c2cc(Cl)c(C(=O)N3CCC(C)(O)CC3)c(Cl)c2)c1C#Cc1ccc(N)nc1", "note": "[Example E-203]", "IC50": 95.2}
{"smiles": "CCc1ncnc(-c2cc(Cl)c(C(=O)N3CCC(CO)CC3)c(Cl)c2)c1C#Cc1ccc(N)nc1", "note": "[Example E-205]", "IC50": 48.9}
{"smiles": "CCc1ncnc(-c2cc(Cl)c(C(=O)N3CCN(CCC#N)CC3)c(Cl)c2)c1C#Cc1ccc(N)nc1", "note": "[Example E-206]", "IC50": 71.8}
{"smiles": "CCc1ncnc(-c2cc(F)c(C(=O)N3CCN4CCC[C@H]4C3)c(F)c2)c1C#Cc1ccc(NC)nc1", "note": "[Example E-207]", "IC50": 581}
{"smiles": "CCc1ncnc(-c2cc(F)c(C(=O)N3CCN(C)C(=O)C3)c(F)c2)c1C#Cc1ccc(NC)nc1", "note": "[Example E-208]", "IC50": 176}
{"smiles": "CCc1ncnc(-c2cc(F)c(C(=O)N3CC[C@@H](N(C)C)C3)c(F)c2)c1C#Cc1ccc(NC)nc1", "note": "[Example E-209]", "IC50": 546}
{"smiles": "CCc1ncnc(-c2cc(F)c(C(=O)N3CCN(C)CC3)c(F)c2)c1C#Cc1ccc(NC)nc1", "note": "[Example E-210]", "IC50": 388}
{"smiles": "CCc1ncnc(-c2cc(F)c(C(=O)N3CCN(CC)CC3)c(F)c2)c1C#Cc1ccc(NC)nc1", "note": "[Example E-211]", "IC50": 472}
{"smiles": "CCc1ncnc(-c2cc(F)c(C(=O)N3CCN(CC(C)(C)O)CC3)c(F)c2)c1C#Cc1ccc(NC)nc1", "note": "[Example E-212]", "IC50": 645}
{"smiles": "CCc1ncnc(-c2cc(F)c(C(=O)N3CCC(C(C)O)CC3)c(F)c2)c1C#Cc1ccc(NC)nc1", "note": "(stereo not drawn) [Example E-213]", "IC50": 465}
{"smiles": "CCc1ncnc(-c2cc(F)c(C(=O)N3CCC(C(C)(C)O)CC3)c(F)c2)c1C#Cc1ccc(NC)nc1", "note": "[Example E-214]", "IC50": 600}
